Results reported in patent US7678787B2, “Pyrrolobenzodiazepine pyridine carboxamides and derivatives as follicle-stimulating hormone receptor antagonists” (Wyeth, priority 2005, dated 2010).

Legend:
human FSH receptor = target: T1, human FSH receptor (Homo sapiens, UniProt P23945); experiment: FSH receptor-dependent CRE-luciferase reporter gene assay (CHO FSH-R 6CRE-Luc cells); type: cell-based; settings: dose-response format in presence of EC50 of purified human FSH; * n=3, ** n=2 averages
T1 construct: host or cells: CHO-K1 (CHO FSH-R 6CRE-Luc, 1D7 cells)
T1 sequence (P23945 18-695): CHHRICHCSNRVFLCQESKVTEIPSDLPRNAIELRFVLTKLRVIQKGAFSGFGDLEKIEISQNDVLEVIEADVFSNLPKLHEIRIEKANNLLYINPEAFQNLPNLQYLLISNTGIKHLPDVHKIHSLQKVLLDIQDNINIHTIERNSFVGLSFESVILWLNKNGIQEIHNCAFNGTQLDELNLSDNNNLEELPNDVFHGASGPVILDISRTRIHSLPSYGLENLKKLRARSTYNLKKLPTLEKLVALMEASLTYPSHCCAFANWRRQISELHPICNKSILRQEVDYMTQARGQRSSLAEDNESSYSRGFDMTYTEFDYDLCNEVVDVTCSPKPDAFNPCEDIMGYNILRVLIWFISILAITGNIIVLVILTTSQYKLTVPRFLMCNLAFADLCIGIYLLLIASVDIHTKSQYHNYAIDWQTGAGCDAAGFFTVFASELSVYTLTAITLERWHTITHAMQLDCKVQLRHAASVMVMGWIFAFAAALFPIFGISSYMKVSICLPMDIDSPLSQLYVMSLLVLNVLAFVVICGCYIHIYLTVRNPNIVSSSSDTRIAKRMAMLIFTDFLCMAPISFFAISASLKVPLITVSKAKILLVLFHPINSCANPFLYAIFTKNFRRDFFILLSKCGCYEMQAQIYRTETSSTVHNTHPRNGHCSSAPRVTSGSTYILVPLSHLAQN
Text: FOLLICLE-STIMULATING HORMONE RECEPTOR-DEPENDENT CRE-LUCIFERASE REPORTER GENE ASSAY FOR THE IDENTIFICATION OF FOLLICLE-STIMULATING HORMONE (FSH) ANTAGONISTS
A Chinese hamster ovarian cell line that stably produces the human FSH receptor and a luciferase reporter gene regulated by cAMP response elements was used to identify and determine the relative potencies of human FSH receptor antagonists. See for example, Kelton, C. A., et al. Mol. Cell. Endocrinol. 89:141-151 (1992), Tilly, J. L., et al. Endocrinology 131:799-806(1992), and George, S. E., et al. J. Biomol. Screening 2:235-240 (1997).
Compound Vehicle: Stock compounds were solubilized in an appropriate vehicle, e.g., phosphate buffered saline (PBS) or dimethyl sulfoxide (DMSO), at 30 mM. The compounds subsequently were diluted in DMSO to working dilutions of 1 and 20 or 30 mM for 2-dose testing format and 1 μM-10 mM for dose-response format. The DMSO dilutions were diluted 500-fold in sterile growth medium [D-MEM/F-12 (GIBCO/BRL; Grand Island, N.Y.) containing 15 mM HEPES, 2 mM l-glutamine, pyridoxine hydrochloride, phenol red and 5% FETALCLONE® II (HyClone Laboratories, Inc; Logan, Utah), 0.2% DMSO, 100 units penicillin G/ml, and 100 μg streptomycin sulfate/ml (GIBCO/BRL)]. The concentration of the vehicle in each of the compound dilutions was the same.
Positive Controls: Purified human FSH (>98%) was purchased from Cortex Biochem, Inc. (San Leandro, Calif.) and 3-[(2S*,5R*)-5-{[2-(1H-Indol-3-yl)-ethylcarbamoyl]-methyl}-4-oxo-2-(5-phenylethynyl-thiophen-2-yl)-thiazolidin-3-yl]-benzamide (an FSH-R thiazolidinone antagonist) was prepared by processes described by R. A. Scheuerman et al. in U.S. Pat. No. 6,426,357 (Affymax).
The CHO FSH-R 6CRE-Luc cells (1D7 cells) were obtained from Affymax (Palo Alto, Calif.). These Chinese hamster ovary cells (CHO-K1) were engineered genetically to stably express the recombinant human FSH receptor gene and a luciferase reporter gene under the regulation of 6 copies of a cAMP response element. The cells were plated one day prior to treatment into 96-well white opaque plates at a density of 50,000 cells/100 μl/well in growth medium. On the day of treatment, the growth medium was removed from the wells by aspiration and 50 μl of fresh growth medium was added to each well. The cells were incubated at 37° C. in a humidified incubator with 5% CO2/95% air.
The treated cells were incubated for 4 hours at 37° C. in a humidified incubator with 5% CO2/95% air. At the end of the incubation period, luciferase activity was measured by chemiluminescence using a commercially available kit (LucScreen, Tropix, Inc., Bedford, Mass.) according to the manufacturer's specifications, except that Buffer 1 and Buffer 2 were mixed together in equal proportion prior to the addition of 100 μl of the combined reagents to each well. Chemiluminescence was detected using a luminometer (EG & G Berthold Microlumat LB 96 P, Wallac, Gaithersburg, Md.) with chemiluminescence measured for 1 sec/well. Background luminescence was measured for each well prior to the addition of the LucScreen reagent.
In the 96-well 2-dose format, each compound was tested in duplicate at each dose. […] One plate was used to test a maximum of 22 compounds.
The EC50 of purified human FSH alone was tested in triplicate with each test compound. The doses chosen to test each compound were extrapolated from the initial 2-dose screening process. Along with the test compounds, purified human FSH also was tested in a dose response (0.03, 0.1, 0.3, 1, 3, 10, and 30 ng/ml) for a positive control and quality control. One plate was used for 3 test compounds and the FSH positive control.
Luciferase activity is expressed as relative light units/sec/well. Luciferase activity in antagonist was compared to the appropriate negative and positive controls. For 2-dose testing, results are reported as luciferase activity and are expressed as percent inhibition of the response obtained from the EC50 of FSH.

Q: For `CSc1ccccc1-c1ccc(C(=O)N2Cc3ccc(C(=O)NCc4cccnc4)n3Cc3ccccc32)cc1` (hydrate or solvate) [Example 14, 10-{[2′-(METHYLTHIO)-1,1′-BIPHENYL-4-YL]CARBONYL}-N-(PYRIDIN-3-YLMETHYL)-10,11-DIHYDRO-5H-PYRROLO[2,1-C][1,4]BENZODIAZEPINE-3-CARBOXAMIDE 0.67 HYDRATE], which melting point is on record?
A: Its melting point is 172 to 175 °C.

Q: With `NS(=O)(=O)c1cc(C(=O)N2Cc3ccc(C(=O)NCc4cccnc4)n3Cc3ccccc32)ccc1N1CCOCC1` (hydrate or solvate) [Example 114, 10-[3-(AMINOSULFONYL)-4-MORPHOLIN-4-YLBENZOYL]-N-(PYRIDIN-3-YLMETHYL)-10,11-DIHYDRO-5H-PYRROLO[2,1-C][1,4]BENZODIAZEPINE-3-CARBOXAMIDE HEMIHYDRATE] as the compound, how does the melting point read?
A: The melting point was 159 to 161 °C.

Q: Which melting point does the source give for `Cc1cccc(C)c1-c1ccc(C(=O)N2Cc3ccc(C(=O)NCc4cccnc4)n3Cc3ccccc32)cc1` [Example 12] here?
A: Its melting point is 216 to 218 °C (dec.).

Q: And the IC50 (human FSH receptor)?
A: Its IC50 is 16.4 µM.

Q: Which melting point does the source give for `NS(=O)(=O)c1ccccc1-c1ccc(C(=O)N2Cc3ccc(C(=O)NCc4cccnc4)n3Cc3ccccc32)cc1` [Example 16] here?
A: Its melting point is 153 to 156 °C.

Q: What about the IC50 (human FSH receptor) of the same compound?
A: The IC50 was 0.994 µM.

Q: For `O=C(NCc1cccnc1)c1ccc2n1Cc1ccccc1N(C(=O)c1ccc(-c3ccccc3Cc3nnn[nH]3)cc1)C2` [Example 19], which melting point is on record?
A: Its melting point is 164 to 167 °C.

Q: And the IC50 (human FSH receptor)?
A: Its IC50 is 2.4 µM.

Q: For `O=C(NCc1cccnc1)c1ccc2n1Cc1ccccc1N(C(=O)c1ccc(-c3ccccc3CN3CCCC3)cc1)C2` [Example 41], which melting point is on record?
A: Its melting point is 210 to 212 °C.

Q: And the IC50 (human FSH receptor)?
A: The IC50 was 25.1 µM.

Q: With `CC(C)(C)OC(=O)c1ccccc1-c1ccc(C(=O)N2Cc3ccc(C(=O)NCc4cccnc4)n3Cc3ccccc32)cc1` [Example 64] as the compound, how does the melting point read?
A: Its melting point is 163 to 165 °C.

Q: What about the IC50 (human FSH receptor) of the same compound?
A: The IC50 was > 30 µM.

Q: For `O=C(O)c1ccccc1-c1ccc(C(=O)N2Cc3ccc(C(=O)NCc4cccnc4)n3Cc3ccccc32)cc1` [Example 65, 4′-{[3-{[(PYRIDIN-3-YLMETHYL)AMINO]CARBONYL}-5H-PYRROLO[2,1-C][1,4]BENZODIAZEPIN-10(11H)-YL]CARBONYL}-1,1′-BIPHENYL-2-CARBOXYLIC ACID], which melting point is on record?
A: Its melting point is 189 to 191 °C.

Q: What about the IC50 (human FSH receptor) of the same compound?
A: Its IC50 is > 30 µM.

Q: Which melting point does the source give for `CNC(=O)c1ccccc1-c1ccc(C(=O)N2Cc3ccc(C(=O)NCc4cccnc4)n3Cc3ccccc32)cc1` [Example 69] here?
A: Its melting point is 221 to 224 °C.

Q: And the IC50 (human FSH receptor)?
A: Its IC50 is 14.5 µM.

Q: With `O=C(NCc1cccnc1)c1ccc2n1Cc1ccccc1N(Cc1ccc(-c3ccccc3)cc1)C2` [Example 73] as the compound, how does the melting point read?
A: Its melting point is 161 to 165 °C (dec.).

Q: What about the IC50 (human FSH receptor) of the same compound?
A: Its IC50 is 2 µM.

Q: For `O=C(NCc1cccnc1)c1ccc2n1Cc1ccccc1N(C(=O)c1ccccc1)C2` [Example 76], which melting point is on record?
A: Its melting point is 197 °C.

Q: Which results are given for `O=C(NCc1cccnc1)c1ccc2n1Cc1ccccc1N(C(=O)c1cccc(F)c1)C2` [Example 78]?
A: melting point: 101 °C; IC50 (human FSH receptor): 18.1 µM

Q: What does the source list for `O=C(NCc1cccnc1)c1ccc2n1Cc1ccccc1N(C(=O)c1ccc(Cl)c(Cl)c1)C2` [Example 81]?
A: melting point: 192 °C; IC50 (human FSH receptor): 18.4 µM

Q: With `COc1ccc(C(=O)N2Cc3ccc(C(=O)NCc4cccnc4)n3Cc3ccccc32)cc1` [Example 89] as the compound, how does the melting point read?
A: Its melting point is 110 to 112 °C.

Q: What about the IC50 (human FSH receptor) of the same compound?
A: Its IC50 is 12.2 µM.

Q: With `O=C(NCc1cccnc1)c1ccc2n1Cc1ccccc1N(C(=O)c1ccc(F)cc1)C2` [Example 93] as the compound, how does the melting point read?
A: The melting point was 171 to 173 °C.

Q: What about the IC50 (human FSH receptor) of the same compound?
A: Its IC50 is > 30 µM.

Q: For `O=C(NCc1cccnc1)c1ccc2n1Cc1ccccc1N(C(=O)c1ccc3c(c1)OCO3)C2` [Example 96], which melting point is on record?
A: Its melting point is 169 to 171 °C.

Q: Which melting point does the source give for `CC(C)(C)OC(=O)NCc1ccc(C(=O)N2Cc3ccc(C(=O)NCc4cccnc4)n3Cc3ccccc32)cc1` [Example 103] here?
A: Its melting point is 171 °C.

Q: And the IC50 (human FSH receptor)?
A: The IC50 was > 30 µM.

Q: Which melting point does the source give for `O=C(NCc1cccnc1)c1ccc2n1Cc1ccccc1N(C(=O)c1ccc(-c3ccncc3)cc1)C2` [Example 110] here?
A: The melting point was 119 to 124 °C.

Q: What about the IC50 (human FSH receptor) of the same compound?
A: The IC50 was 7.65 µM.

Q: What does the source list for `O=C(NCc1cccnc1)c1ccc2n1Cc1ccccc1N(C(=O)c1ccc(-c3nccs3)cc1)C2` [Example 111]?
A: melting point: 178 to 179 °C; IC50 (human FSH receptor): 5.48 µM

Q: With `O=C(NCc1cccnc1)c1ccc2n1Cc1ccccc1N(C(=O)COc1ccc(Cl)cc1)C2` [Example 138] as the compound, how does the melting point read?
A: The melting point was 169 to 171 °C.

Q: What about the IC50 (human FSH receptor) of the same compound?
A: Its IC50 is 15.8 µM.

Q: What does the source list for `Cc1cc(Cl)ccc1OCC(=O)N1Cc2ccc(C(=O)NCc3cccnc3)n2Cc2ccccc21` [Example 139]?
A: melting point: 168 °C; IC50 (human FSH receptor): 9.86 µM

Q: With `O=C(NCc1cccnc1)c1ccc2n1Cc1ccccc1N(C(=O)Cc1ccc(Cl)cc1)C2` [Example 142] as the compound, how does the melting point read?
A: Its melting point is 83 °C.

Q: What about the IC50 (human FSH receptor) of the same compound?
A: Its IC50 is 18.5 µM.

Q: Which melting point does the source give for `O=C(NCc1cccnc1)c1ccc2n1Cc1ccccc1N(C(=O)c1ccc3c(c1)Cc1ccccc1-3)C2` [Example 147] here?
A: Its melting point is 116 to 119 °C.
